Measurements: patent CN105663037A, “一种阿莫西林溶液剂及其制备方法和用途” (Chengdu Qiankun Veterinary Pharmaceutical Co Ltd, priority 2016, dated 2016)

Columns and labels:
[1] = Selection of mixed solvent (Table 4); format: physicochemical
[2] = in vivo, cited from earlier work
[3] = cited from earlier work

dissolution when amount of dimethyl sulfoxide is reduced ([1]; 25 g amoxicillin, less than 100 ml dimethyl sulfoxide): 不能完全溶解 | volume of dimethyl sulfoxide required to dissolve 25 g amoxicillin as stable solution ([1]; from results of 2.2 and 2.3): 100 mL
Compound: CC1(C)S[C@@H]2[C@H](NC(=O)[C@H](N)c3ccc(O)cc3)C(=O)N2[C@H]1C(=O)O [阿莫西林]
gastrointestinal absorption rate ([2]; po): 90% | half-life [2]: ~1.02 h | stability under acidic conditions [3]: 稳定
